Laboratory results reported in patent US11731980B1, “Furo[3,4-b]quinolone compounds as antibacterial agents” (KING FAISAL UNIVERSITY, priority 2023, dated 2023).
≈ marks a conversion by molar mass, not a printed value. Like-named read-outs stand apart in the source and are kept apart here.

Experiments:
[1] = test system: Staphylococcus aureus ATCC 29213; test: In vitro antibacterial activity, CLSI M07-A10 dilution (MIC); assay type: cell-based; conditions: ATCC29213
[2] = test system: Staphylococcus aureus ATCC BAA-1556 (MERSA resistant); test: as above; assay type: cell-based; conditions: ATCCBAA1556
[3] = test system: Staphylococcus epidermidis; test: as above; assay type: cell-based
[4] = test system: Bacillus subtilis MTCC 441; test: as above; assay type: cell-based; conditions: MTCC441
[5] = test system: Enterococcus faecium ATCC 35667; test: as above; assay type: cell-based; conditions: ATCC35667
[6] = test system: Enterococcus faecium ATCC 51559 (VRE resistant); test: as above; assay type: cell-based
[7] = test system: Klebsiella pneumonia MTCC 618; test: as above; assay type: cell-based; conditions: Klebsiella pneumoniae, MTCC618
[8] = test system: Escherichia coli MTCC 443; test: as above; assay type: cell-based; conditions: MTCC443
[9] = test system: Pseudomonas aeruginosa MTCC 741; test: as above; assay type: cell-based; conditions: MTCC741
[10] = test system: Mycobacterium tuberculosis H37Rv strain; test: Anti-tubercular alamar blue microplate assay (MIC); assay type: cell-based; conditions: 168 h, M. tuberculosis H37Rv, seven days at 37° C., read-out: anti-mycobacterial activity (MIC)
DNA gyrase from E. coli = biological target: T1, DNA gyrase from E. coli (Escherichia coli, UniProt P0AES4+P0AES6); test: Inhibitory activity on E. coli DNA gyrase (Inspiralis assay); assay type: biochemical
T1 construct: purchased Inspiralis
T1 sequence (P0AES4 whole entry, one chain of several): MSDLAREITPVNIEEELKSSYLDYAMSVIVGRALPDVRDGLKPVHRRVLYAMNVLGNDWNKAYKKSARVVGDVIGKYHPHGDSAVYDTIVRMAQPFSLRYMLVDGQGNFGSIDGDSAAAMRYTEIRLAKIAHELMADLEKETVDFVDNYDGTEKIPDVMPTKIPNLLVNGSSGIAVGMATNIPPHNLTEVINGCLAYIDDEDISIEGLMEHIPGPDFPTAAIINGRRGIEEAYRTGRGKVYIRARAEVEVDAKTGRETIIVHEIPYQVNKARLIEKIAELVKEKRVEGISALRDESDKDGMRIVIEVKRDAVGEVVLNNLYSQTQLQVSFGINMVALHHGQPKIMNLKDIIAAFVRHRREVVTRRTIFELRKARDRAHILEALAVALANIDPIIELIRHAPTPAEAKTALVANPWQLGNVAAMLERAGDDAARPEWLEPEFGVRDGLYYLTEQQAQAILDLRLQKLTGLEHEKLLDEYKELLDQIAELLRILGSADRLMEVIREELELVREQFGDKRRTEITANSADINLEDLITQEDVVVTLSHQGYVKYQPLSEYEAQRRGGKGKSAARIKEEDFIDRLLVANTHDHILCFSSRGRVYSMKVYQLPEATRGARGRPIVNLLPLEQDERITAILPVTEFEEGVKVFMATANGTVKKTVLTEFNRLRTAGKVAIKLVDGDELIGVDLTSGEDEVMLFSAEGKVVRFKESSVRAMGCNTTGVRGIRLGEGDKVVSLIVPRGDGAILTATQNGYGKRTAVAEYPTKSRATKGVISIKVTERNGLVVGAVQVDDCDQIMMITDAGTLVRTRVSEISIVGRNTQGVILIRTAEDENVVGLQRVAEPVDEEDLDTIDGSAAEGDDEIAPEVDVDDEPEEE
Method: Inhibitory potencies were investigated utilizing the Inspiralis assay on streptavidin-coated 96-well microtiter plates. First, the plates were rehydrated with buffer (20 mM Tris-HCl with pH 7.6, 0.01% w/v BSA, 0.05% v/v Tween 20, 137 mM NaCl) and the biotinylated oligonucleotide was then immobilized. After washing off the unbound oligonucleotide, the enzyme test was performed. The reaction volume of 30 μL in buffer (35 mM Tris×HCl with pH 7.5, 4 mM MgCl2, 24 mM KCl, 2 mM DTT, 1.8 mM spermidine, 1 mM ATP, 6.5% w/v glycerol, 0.1 mg/mL albumin) contained 1.5 U of DNA gyrase from E. coli, 0.75 μg of relaxed pNO1 plasmid, and 3 μL solution of the inhibitor in 10% DMSO and 0.008% Tween 20. Reaction solutions were incubated at 37° C. for 30 min. After that, the TF buffer (50 mM NaOAc with pH 5.0, 50 mM NaCl and 50 mM MgCl2) was added to terminate the enzymatic reaction. After additional incubation for 30 min at rt, during which biotinoligonucleotide-plasmid triplex was formed, the unbound plasmid was washed off using TF buffer and SybrGOLD in T10 buffer (10 mM Tris HCl with pH 8.0 and 1 mM EDTA) was added. The fluorescence was measured with a microplate reader (BioTek Synergy H4, excitation: 485 nm, emission: 535 nm). Initial screening was done at 100 or 10 μM concentration of inhibitors. […] GraphPad Prism software was used to calculate the IC50 values. […]

With `CN[C@H](CC(C)C)C(=O)N[C@H]1C(=O)N[C@@H](CC(N)=O)C(=O)N[C@H]2C(=O)N[C@H]3C(=O)N[C@H](C(=O)N[C@H](C(=O)O)c4cc(O)cc(O)c4-c4cc3ccc4O)[C@H](O)c3ccc(c(Cl)c3)Oc3cc2cc(c3O[C@@H]2O[C@H](CO)[C@@H](O)[C@H](O)[C@H]2O[C@H]2C[C@](C)(N)[C@H](O)[C@H](C)O2)Oc2ccc(cc2Cl)[C@H]1O` [Vancomycin, reference compound] the MIC ([1]; Staphylococcus aureus) was 1 µg/mL (≈ 0.69 µM), the MIC ([2]; Staphylococcus aureus) was 1 µg/mL (≈ 0.69 µM) and the MIC [3] was 1 µg/mL (≈ 0.69 µM). For the same compound, the MIC ([4]; Bacillus subtilis) was 0.5 µg/mL (≈ 0.345 µM), the MIC ([5]; Enterococcus faecium) was 0.5 µg/mL (≈ 0.345 µM) and the MIC ([6]; Enterococcus faecium) was > 128 µg/mL. For the same compound, the MIC [7] was > 128 µg/mL, the MIC ([8]; Escherichia coli) was > 128 µg/mL and the MIC ([9]; Pseudomonas aeruginosa) was > 128 µg/mL.

Work on `CCCCCN(C)Cc1cc(-c2c3c(nc4cc(NC(=O)C5CC5)ccc24)COC3=O)ccc1C(=O)O` [Compound 8, 4-(6-(cyclopropanecarboxamido)-1-oxo-1,3-dihydrofuro[3,4-b]quinolin-9-yl)-2-((methyl(pentyl)amino)methyl)benzoic acid] yielded an MIC ([1]; Staphylococcus aureus ATCC 29213, read-out: MIC) of 16 µg/mL (≈ 31.9 µM), an MIC ([2]; Staphylococcus aureus ATCC BAA-1556 (MERSA resistant), read-out: MIC) of 16 µg/mL (≈ 31.9 µM) and an MIC ([3]; read-out: MIC) of 16 µg/mL (≈ 31.9 µM). It also gave an MIC ([4]; Bacillus subtilis MTCC 441, read-out: MIC) of 8 µg/mL (≈ 15.9 µM), an MIC ([5]; Enterococcus faecium ATCC 35667, read-out: MIC) of 8 µg/mL (≈ 15.9 µM) and an MIC ([6]; Enterococcus faecium ATCC 51559 (VRE resistant), read-out: MIC) of 16 µg/mL (≈ 31.9 µM). The MIC ([7]; Klebsiella pneumonia MTCC 618, read-out: MIC) was 8 µg/mL (≈ 15.9 µM), the MIC ([8]; Escherichia coli MTCC 443, read-out: MIC) was 16 µg/mL (≈ 31.9 µM) and the MIC ([9]; Pseudomonas aeruginosa MTCC 741, read-out: MIC) was 8 µg/mL (≈ 15.9 µM). It also gave an MIC [10] of 4 µg/mL (≈ 7.97 µM) and an IC50 (DNA gyrase from E. coli) of 550 nM.
